Earlier results as cited in patent US20150289553A1, “METHOD OF DEVELOPING SAFE AND EFFECTIVE DIETARY SUPPLEMENTS” (priority 2014, published 2015).
Where two headings read alike, the source gives them in different places.

Legend:
[1] = for Clinically Effective Dosage Range: daily dosage, adults (18+ yrs.); for Dataset 2 Clinical Efficacy: Table 5, multivitamin/mineral for adult U.S. women
[2] = high intake of supplemental calcium; men
[3] = calcium supplements; almost 24,000 participants
[4] = not given; remark: listed apart in the source
[5] = 400 IU/d; 19 trials, 135,967 subjects
[6] = 400 IU every other day for 8 years; 14,641 men
[7] = 600 IU every other day; 39,876 women
[8] = Table 5, multivitamin/mineral for adult U.S. women
[9] = adults (18+ yrs.), derived from published literature and regulatory files

Compound | Clinically Effective Dosage Range [1] | Upper Limits, CRN-listed Nutrients (adults (18+ yrs.)) | Dataset 2 Clinical Efficacy [1] | Dataset 1 Upper Limits [8] [mg] | other results
[P] [Phosphorus] | 125-2,000 mg | 1,500 mg | – | – | –
[Ca+2] [Calcium] | 130-2,000 mg | 1,500 mg | 130 to 2000 mg | 1500 | risk of cardiovascular disease death [2]: associated with an excess risk of cardiovascular disease death; risk of myocardial infarction [3]: raised the risk of myocardial infarction
CC1=C(/C=C/C(C)=C/C=C/C(C)=C/CO)C(C)(C)CCC1 [Vitamin A (retinol and its esters), retinol] | 90-3,300 mcg | – | 0.09 to 3.3 mg | – | Dataset 1 Upper Limits (in vivo): 1.5 mg; Upper Limits, CRN-listed Nutrients (in vivo): 1,500 mcg
Vitamin K | 12-1,000 mcg | – | – | – | Upper Limits, CRN-listed Nutrients (in vivo): 10 mg
Cc1ncc(CO)c(CO)c1O [Vitamin B6 (pyridoxine), pyridoxine] | 0.17 to 200 mg | 100 mg | 0.17 to 200 mg | 100 | –
[O]=[Mg] [magnesium oxide] | – | – | – | – | bioavailability ([4]; versus most organic magnesium salts or chelates (citrate, malate, glycinate)): lower bioavailability
[B] [Boron] | 0.2 to 11.6 mg | – | – | – | Upper Limits, CRN-listed Nutrients (in vivo): 6 mg
NC(=O)c1cccnc1 [Nicotinamide] | 1.6-3,000 mg | 1,500 mg | 1.6 to 3000 mg | 1500 | –
[Cr] [Chromium] | 3.5-1,000 mcg | 1,000 mcg | 0.0035 to 1 mg | 1 | –
[Cu] [Copper] | 0.09 to 8 mg | – | 0.09 to 8 mg | – | Dataset 1 Upper Limits (in vivo): 9 mg; Upper Limits, CRN-listed Nutrients (in vivo): 9 mg
CC1=C(/C=C/C(C)=C/C=C/C(C)=C/C=C/C=C(C)/C=C/C=C(C)/C=C/C2=C(C)CCCC2(C)C)C(C)(C)CCC1 [Beta-Carotene] | 1 to 180 mg | – | – | – | Upper Limits, CRN-listed Nutrients (adults (18+ yrs.), non-smokers): 25 mg
CC(C)=CCC/C(C)=C/C=C/C(C)=C/C=C/C(C)=C/C=C/C=C(C)/C=C/C=C(C)/C=C/C=C(\C)CCC=C(C)C [Lycopene] | 0.2 to 30 mg | – | – | – | Upper Limits, Other Nutrients [9]: 11.3 mg
Nc1nc2ncc(CNc3ccc(C(=O)N[C@@H](CCC(=O)O)C(=O)O)cc3)nc2c(=O)[nH]1 [Folic Acid] | 40-5,000 mcg | – | 0.04 to 5 mg | – | bioavailability ([4]; folic acid in supplements versus folic acid in foods (folates)): higher bioavailability
CC1=C[C@H](O)CC(C)(C)[C@H]1/C=C/C(C)=C/C=C/C(C)=C/C=C/C=C(C)/C=C/C=C(C)/C=C/C1=C(C)C[C@@H](O)CC1(C)C [Lutein] | 0.1 to 20 mg | – | 0.1 to 20 mg | – | Dataset 1 Upper Limits (in vivo): 17.6 mg; Upper Limits, Other Nutrients (in vivo): 17.6 mg
[Mn+2] [Manganese] | 0.23 to 30 mg | 10 mg | 0.23 to 30 mg | 10 | –
Cc1c(C)c2c(c(C)c1O)CC[C@@](C)(CCC[C@H](C)CCC[C@H](C)CCCC(C)C)O2 [Vitamin E, RRR-alpha-tocopherol] | 1.5-1,342 mg | – | 1.5 to 1342 mg | 1000 | mortality [5]: increased mortality; risk for cardiovascular disease [6]: did not reduce the risk; effects on cardiovascular health or cancer prevention [7]: no effects; UL (Upper Limit) (healthy US adults, Embodiment 1): 1,000 mg
CC1=CCCC(C)(C)C1/C=C/C(C)=C/C=C/C(C)=C/C=C/C=C(C)/C=C/C=C(C)/C=C/C1=C(C)CCCC1(C)C (stereo not drawn) [Alpha-Carotene] | 0.01 to 5 mg | – | – | – | Upper Limits, Other Nutrients [9]: 8.3 mg

Compound | Clinically Effective Dosage Range [1] | Upper Limits, CRN-listed Nutrients (adults (18+ yrs.)) | Dataset 2 Clinical Efficacy [1] | Dataset 1 Upper Limits [8] [mg] | other results
[O-2].[Zn+2] [Zinc] | 1.1 to 80 mg | 30 mg | 1.1 to 80 mg | 30 | –
CC1=C(/C=C/C(C)=C/C=C/C(C)=C/C=C/C=C(C)/C=C/C=C(C)/C=C/C2=C(C)C(=O)[C@@H](O)CC2(C)C)C(C)(C)C[C@H](O)C1=O [Astaxanthin] | 4 to 100 mg | – | – | – | Upper Limits, Other Nutrients (in vivo): 5.3 mg
CC1=C(/C=C/C(C)=C/C=C/C(C)=C/C=C/C=C(C)/C=C/C=C(C)/C=C/C2=C(C)C[C@@H](O)CC2(C)C)C(C)(C)C[C@H](O)C1 [Zeaxanthin] | 0.01 to 10 mg | – | – | – | Upper Limits, Other Nutrients (in vivo): 10 mg
C=C1CC[C@H](O)C/C1=C/C=C1\CCC[C@]2(C)[C@@H]([C@H](C)CCCC(C)C)CC[C@@H]12 [Vitamin D, cholecalciferol] | 0.002 to 0.25 mg | – | 0.002 to 0.25 mg | – | –
cyanocobalamin [Vitamin B12] | 0.24-2,500 mcg | – | 0.24-2500^ mcg | – | Dataset 1 Upper Limits (in vivo): 3 mg; Upper Limits, CRN-listed Nutrients (in vivo): 3,000 mcg
[K+] [Potassium] | 470-5,000 mg | 1,500 mg | – | – | –
O=C(O)CCCC[C@@H]1SC[C@@H]2NC(=O)N[C@@H]21 [Biotin] | 3-15,000 mcg | 2,500 mcg | 0.003 to 15 mg | 2.5 | –
Cc1ncc(C[n+]2csc(CCO)c2C)c(N)n1 [Vitamin B1 (thiamin), thiamin] | 0.12-1,000 mg | 100 mg | 0.12-1000^ mg | 100 | –
CC/C=C\C/C=C\C/C=C\CCCCCCCC(=O)O [Alpha-Linolenic Acid] | – | – | – | – | Upper Limits, Other Nutrients (in vivo): 25000 mg
[Se] [Selenium] | 0.0055 to 0.2 mg | – | 5.5-200^ mcg | – | Dataset 1 Upper Limits (in vivo): 0.2 mg; Upper Limits, CRN-listed Nutrients (in vivo): 0.2 mg
[Mg+2] [Magnesium] | 42-1,200 mg | 400 mg | 42 to 1200 mg | 400 | –
C[N+](C)(C)CCO [Choline] | – | – | – | – | Upper Limits, Other Nutrients [9]: 3,500 mg
O=C1O[C@H]([C@@H](O)CO)C(O)=C1O [Vitamin C, ascorbic acid] | 9-10,000 mg | – | 9 to 10000 mg | – | –
[Fe] [Iron] | 1.8 to 120 mg | – | 125 to 2000 mg | – | Dataset 1 Upper Limits (in vivo): 60 mg; Upper Limits, CRN-listed Nutrients (in vivo): 60 mg
[Mo] [Molybdenum] | 0.0045 to 0.467 mg | – | – | – | Upper Limits, CRN-listed Nutrients (in vivo): 0.35 mg
O=C(O)c1cccnc1 [Nicotinic Acid] | 1.6-3,000 mg | 250 mg | – | – | –
